This is an account of results in ChEMBL document CHEMBL4428075, “New antiproliferative 7-(4-(N-substituted carbamoylmethyl)piperazin-1-yl) derivatives of ciprofloxacin induce cell cycle arrest at G2/M phase” (Bioorg Med Chem, 2016).

One assay has as its system WI-38. In words: Antiproliferative activity against human WI38 cells after 24 hrs by BrdU incorporation assay. Format: cell-based. Particulars: WI-38, 24 h. For orientation: Uptake of a labelled nucleoside into DNA is a usual measure of proliferation.
For assay [1], the system named is A549. Put plainly: Antiproliferative activity against human A549 cells after 24 hrs by BrdU incorporation assay. It is filed as functional, cell-based. The settings on record: A549, 24 h.
Assay [2] concerns A549. In words: Induction of cell cycle arrest in human A549 cells assessed as accumulation at S phase at 1 uM after 24 hrs by FITC-labeled anti-BrdU antibody/7AAD staining based FACS calibur flow cytometric analysis (reference value: 20.9 %). It is filed as functional. On the technique in general: Flow cytometry measures light scatter and fluorescence of single cells or particles in a stream.

In assay [3] the test system is A549. In words: Induction of cell cycle arrest in human A549 cells assessed as accumulation at G1 phase at 1 uM after 24 hrs by FITC-labeled anti-BrdU antibody/7AAD staining based FACS calibur flow cytometric analysis (reference value: 65.9 %). It is filed as functional.
Assay [4] deals with A549. In words: Induction of cell cycle arrest in human A549 cells assessed as accumulation at G2/M phase at 1 uM after 24 hrs by FITC-labeled anti-BrdU antibody/7AAD staining based FACS calibur flow cytometric analysis (reference value: 12.61 %). It is filed as functional.
Assay [5] concerns A549. In words: Induction of cell cycle arrest in human A549 cells assessed as accumulation at sub G1 phase at 1 uM after 24 hrs by FITC-labeled anti-BrdU antibody/7AAD staining based FACS calibur flow cytometric analysis (reference value: 0.82 %). Format: functional.
Assay [6] concerns A549. In words: Induction of cell cycle arrest in human A549 cells assessed as accumulation at S phase at 100 uM after 24 hrs by FITC-labeled anti-BrdU antibody/7AAD staining based FACS calibur flow cytometric analysis (reference value: 20.9 %). Format: functional.
In assay [7] the test system is A549. In words: Induction of cell cycle arrest in human A549 cells assessed as accumulation at G2/M phase at 100 uM after 24 hrs by FITC-labeled anti-BrdU antibody/7AAD staining based FACS calibur flow cytometric analysis (reference value: 12.61 %). Format: functional.
Assay [8] concerns A549. Put plainly: Induction of cell cycle arrest in human A549 cells assessed as accumulation at sub G1 phase at 100 uM after 24 hrs by FITC-labeled anti-BrdU antibody/7AAD staining based FACS calibur flow cytometric analysis (reference value: 0.82 %). Format: functional.
The test system of assay [9] is A549. In words: Induction of cell cycle arrest in human A549 cells assessed as accumulation at G1 phase at 100 uM after 24 hrs by FITC-labeled anti-BrdU antibody/7AAD staining based FACS calibur flow cytometric analysis (reference value: 65.9 %). It is filed as functional.

One may read the IC50 as the concentration that gives 50% inhibition. As for `Cc1ccc(NC(=O)CN2CCN(c3cc4c(cc3F)c(=O)c(C(=O)O)cn4C3CC3)CC2)cc1`, the half-maximal inhibitory concentration (IC50) is more than 100 µM with WI-38 and 23.6 µM in the assay with A549 [1].
Take `O=C(CN1CCN(c2cc3c(cc2F)c(=O)c(C(=O)O)cn3C2CC2)CC1)Nc1ccccc1`: the IC50 in the assay on WI-38 and in the assay on A549 [1] was more than 100 µM throughout.
Take `COc1cccc2c1C(=O)c1c(O)c3c(c(O)c1C2=O)C[C@@](O)(C(=O)CO)C[C@@H]3O[C@H]1C[C@H](N)[C@H](O)[C@H](C)O1` [DOXORUBICIN]: the Activity with A549 [2] is on record as 15.4%; in the assay on A549 [3], 56.5%; with A549 [4] it was 22.5%; in the assay on A549 [5], 6.75%. In the assay on WI-38, this molecule gave a half-maximal inhibitory concentration (IC50) of 12.3 µM.
As to `COc1ccccc1NC(=O)CN1CCN(c2cc3c(cc2F)c(=O)c(C(=O)O)cn3C2CC2)CC1`, the half-inhibitory concentration (IC50) in the assay on WI-38 and in the assay with A549 [1] was more than 100 µM in each case.
For the molecule `O=C(CN1CCN(c2cc3c(cc2F)c(=O)c(C(=O)O)cn3C2CC2)CC1)NC1CCCCC1`, the figures for the IC50 with WI-38 and with A549 [1] were more than 100 µM and 20.7 µM, respectively.
For `O=C(O)c1cn(C2CC2)c2cc(N3CCNCC3)c(F)cc2c1=O` [CIPROFLOXACIN], the Activity with A549 [6] stood at 3.8%; in the assay on A549 [7] it was 16.8%; in the assay on A549 [8], 9.5%; in the assay on A549 [9], 61%. In addition, the IC50 with WI-38 and in the assay on A549 [1] was more than 100 µM each time.
